Results from ChEMBL document CHEMBL1157297, “Daphmanidins E and F, alkaloids from Daphniphyllum teijsmannii” (2006).

What was measured:
Aorta [1] = experiment: Vasorelaxant activity against norepinephrine-induced contraction in Wistar rat thoracic aorta at 10 uM; type: functional; parameters: scale not given: the % may be the effect or the level left
Aorta [2] = experiment: Vasorelaxant activity against norepinephrine-induced contraction in Wistar rat thoracic aorta at 100 uM; type: functional; parameters: scale not given: the % may be the effect or the level left

SMILES | Activity (Aorta [1]) | Activity (Aorta [2])
COC(=O)[C@@H]1C[C@]23C4=NC[C@@H](C)[C@]45CC[C@@]2(COC(C)=O)[C@H](CCC2=C3[C@@H]1CC2)[C@H]5O [DAPHMANIDIN A] | 37.5% | 
COC(=O)C1=C2CCC3=C2[C@@]2(C1)C1=NC[C@@H](C)[C@]14CC[C@@]2(COC(C)=O)[C@H](CC3)[C@H]4O [DAPHMANIDIN E] |  | 34.9%
COC(=O)C1=C2CC[C@]34CC[C@@H]5[C@@H](O)[C@@]67CC[C@]5(COC(C)=O)[C@](C1)(C6=NC[C@H]7C)[C@]23O4 [DAPHMANIDIN F] | 45.8% | 
